Legend:
Type in all cases: in vivo, mouse
J20 mice [1] = assay: Barnes maze spatial memory, treatment of symptomatic J20 mice
Source text: FIG. 8: VX-765 treatment restores cognitive function in J20 mice. (a) Experimental paradigm. Intraperitoneal vehicle-injected wild type (WT+Vehicle; n=13) and J20 mice (J20+Vehicle: n=9), and VX-765-injected J20 mice (J20+VX-765: n=9) mice were behaviourally assessed at 5 different time-points: baseline before treatment (baseline untreated J20 were grouped together; n=18), after 3 IP injections/wk of VX-765 or vehicle (Treatment 1), after 6 additional injections over 2 weeks (Treatment 2), after 4-week Washout period, and after an additional 3 injections in one week (Treatment 3). Mice were sacrificed at 8 months of age after Treatment 3 (b) NOR Discrimination index (Treatment main effect, F(2,20)=85.8, p<0.0001; Time main effect, F(4,80)=4.188, p=0.0039; Treatment×Time interaction, F(8,80)=[…], two-way repeated-measures ANOVA, Dunnett's post-hoc compared to J20+Vehicle). (c) Distance traveled during Open Field task. Data analyzed by repeated measures two-way ANOVA (Treatment main effect, F(2,19)=11.47, p=0.0005; Treatment×Time interaction, F(8,76)=5.69, p<0.0001, two-way repeated-measures ANOVA, Dunnett's post-hoc compared to J20+Vehicle). (d-i) Barnes maze analysis. Learning acquisition (d,g), probe test primary latency and errors (e,h), and target hole preference (f,i); # of pokes of each hole labelled +1 to +9 to the right or −1 to −9 to the left of the target hole during the probe) after Treatment 2 (d-f) and Washout (g-i). Probe tests were analyzed (Treatment 2 primary latency, F(2,52)=5.879, p=0.0050; Treatment 2 primary errors, F(2,52)=9.998, p=0.0002; Washout primary latency, F(2,22)=4.076, p=0.0312; Washout primary errors, F(2,22)=10.84, p=0.0005, ANOVA, Tukey's post-hoc). * p<0.05, ***p<0.001, ****p<0.0001.
FIG. 9: VX-765 dose-dependently restores cognitive function in J20 mice. (a) NOR discrimination index after VX-765 dose response at Treatment 1 (F(3,24)=20.42, p<0.0001, ANOVA, Dunnett's post-hoc compared to J20 0 mg/kg), Treatment 2 (F(3,23)=12.83, p<0.0001, ANOVA, Dunnett's post-hoc compared to J20 0 mg/kg), Washout, and Treatment 3 (F(3,23)=8.828, p=0.0004, ANOVA, Dunnett's post-hoc compared to J20 0 mg/kg). Note that the 50 mg/kg dose was not performed at the same time and is placed here for comparison purposes only. Nevertheless, the discrimination index was stable between experiments (b-g) Barnes maze Treatment 2 (b-d) and Washout (e-g) learning acquisition (b,e), probe test (c,f), and target hole preference (d,g). For T2 primary errors, F(2,14)=5.69, p=0.0155, ANOVA, Dunnett's post-hoc compared to J20+Vehicle. * p<0.05, ***p<0.001, ****p<0.0001.
Anxiety and hyperactivity are monitored in an open-field paradigm, episodic memory with the NOR, spatial memory with the Barnes maze, and short or long term working memory with the Y maze before and after treatments. Repeated measures are acceptable for the NOR, Barnes and Y maze^2-4.
Five month old mice were behaviorally and longitudinally assessed before treatment (baseline), after 3 injections/week of 50 mg/kg VX-765 (Treatment 1; T1), after an additional 2 weeks of injections (Treatment 2; T2), after 4 weeks without treatment (Washout; WO), and after 3 more injections/week (Treatment 3; T3) before sacrificing the mice at 8 months of age as illustrated in FIG. 8a. […] Results were consistent across individual mice (FIG. 15c). […] However, during the probe test, the primary latency, primary errors (FIG. 8e) and the ability to find the target (T) escape hatch (FIG. 8f) were clearly impaired in vehicle-injected J20 compared to WT littermates. […] After WO, all mice performed well during the training phase of the Barnes maze (FIG. 8g). […] J20 mice performance in the Y maze working memory task was consistently low but not always statistically different from WT or treated J20 mice (FIG. 15e).

J20 mice [2] = assay: Iba1 and GFAP immunostaining, preventive treatment of J20 mice
Source text: FIG. 4: Immunostainings of mice hippocampus at 4 months of age (PREVENTION GROUP) with microglial Iba-1, astrocyte GFAP, and synaptic synaptophysin antibodies.
FIG. 25: Iba1 immunopositive staining in the mice brain hippocampus at different times of washout (a,b). All sections were immunostained together and automatically with Dako immunostainer and the number of Iba1-immunopositive […] counted stereologically. Statistics done as described in FIG. 10b. (c) Analyses of subtypes of Iba1-immunopositive microglia as described in FIG. 10c.
FIG. 26: GFAP immunopositive staining in the hippocampus of mice brains at different times of washout (a,b). All sections were immunostained together and automatically with Dako immunostainer. Quantitation of GFAP-immunopositive astrocytes was done as described above.
We directly tested whether pre-symptomatic inhibition of inflammation in a mouse genetic model of Alzheimer disease can stem the progression of memory and behavioral deficits, and Alzheimer disease-like pathology. The J20 amyloid precursor protein Swedish/Indiana mutant mouse was treated at 2 months of age for a one month period with 50 mg/Kg Caspase-1 inhibitor VX-765 (FIG. 22a).

[3] = Blood brain barrier permeability, brain and plasma levels; conditions: WT and J20 mice
Description: FIG. 14: Selectivity and blood brain permeability of VX-765 and VRT-043198. (a-b) IC50 of VX-765 (a) and VRT-043198 (b) against human Casp1-10. (c-d) IC50 of VX-765 (c) and VRT-043198 (d) against mouse Casp1 and Casp11. (e) Blood brain barrier permeability and presence of VX-765 and VRT-043198 in 3 wild type and 4 J20 mice brain cortex and hippocampus and in plasma. Ratios of brain levels to plasma levels are calculated.

Question: With `CCO[C@@H]1OC(=O)C[C@@H]1NC(=O)[C@@H]1CCCN1C(=O)[C@@H](NC(=O)c1ccc(N)c(Cl)c1)C(C)(C)C` [VX-765, (S)-1-((S)-2-{[1-(4-amino-3-chloro-phenyl)-methanoyl]-amino}-3,3-dimethyl-butanoyl)-pyrrolidine-2-carboxylic acid ((2R,3S)-2-ethoxy-5-oxo-tetrahydro-furan-3-yl)-amide] as the molecule, how does the “Barnes maze ability to recognize the escape hatch in probe test” value (J20 mice [1]; 10 mg/kg, after Treatment 2) read?
Answer: improved in their ability to recognize the escape hatch

Question: What about the “Barnes maze primary latency” value (J20 mice [1]; 10 mg/kg, after Treatment 2) of the same molecule?
Answer: remained impaired in primary latency

Question: And the “Barnes maze primary latency and errors” value (J20 mice [1]; 10 mg/kg, after washout)?
Answer: No significant difference

Question: What about the “Barnes maze ability to recognize the escape hatch in probe test” value (J20 mice [1]; 25 mg/kg, after Treatment 2) of the same molecule?
Answer: improved in their ability to recognize the escape hatch

Question: What about the “Barnes maze primary errors” value (J20 mice [1]; 25 mg/kg, after Treatment 2) of the same molecule?
Answer: decreased

Question: What about the “Barnes maze primary latency” value (J20 mice [1]; 25 mg/kg, after Treatment 2) of the same molecule?
Answer: remained impaired in primary latency

Question: And the “Barnes maze primary latency and errors” value (J20 mice [1]; 25 mg/kg, after washout)?
Answer: No significant difference

Question: And the “Barnes maze recognition of the position of the escape hatch” value (J20 mice [1]; 25 mg/kg, after washout)?
Answer: retained the ability to recognize the position of the escape hatch

Question: And the “Barnes maze probe test: primary latency, primary errors, finding target hatch” value (J20 mice [1]; 50 mg/kg IP, after Treatment 2)?
Answer: eliminated these spatial memory deficits

Question: What about the “Barnes maze ability to find the target hatch” value (J20 mice [1]; 50 mg/kg IP, after washout) of the same molecule?
Answer: performed better than vehicle-injected J20 mice

Question: What about the “Barnes maze probe test primary latency and errors” value (J20 mice [1]; 50 mg/kg IP, after washout) of the same molecule?
Answer: appeared normal in primary latency and errors

Question: What about the GFAP astrogliosis (J20 mice [2]; 4 month old J20 brains) of the same molecule?
Answer: possibly GFAP astrogliosis

Question: And the “microglial Iba1 positive inflammation” value (J20 mice [2]; 4 month old J20 brains)?
Answer: reduced microglial Iba1 positive inflammation

Question: And the “astrocytic GFAP immunostaining” value (J20 mice [2]; different times of washout)?
Answer: does not reach statistical significance

Question: What about the “Iba1 positive microglial inflammation” value (J20 mice [2]; hippocampus and cortex, different times of washout) of the same molecule?
Answer: strongly decreased microglial inflammation

Question: What about the subtype of microglia (J20 mice [2]; up to the 12 week washout, hippocampus and cortex) of the same molecule?
Answer: restores resting microglia numbers

Question: What about the “blood brain barrier crossing” value [3] of the same molecule?
Answer: crossed the blood brain barrier

Question: And the “concentrations in hippocampus and cortex” value [3]?
Answer: reached physiologically active concentrations

Question: And the “metabolism of the pro-drug” value [3]?
Answer: metabolized into VRT-043198
